Results: PMC10761680 (Scientific Reports, 2024)
Read-outs that look alike come from different tables or passages of the source. Each block holds one molecule with its values, some of them ahead of it.

Key:
human soluble ENPP1 [1] = target: human soluble ENPP1; parameters: method as in earlier work; conditions: substrate ATP, Colorimetry (Molybdenum-phosphate complex), pH 9.0; cited from earlier work
human soluble ENPP1 [2] = conditions: substrate p-Nph-5′-TMP, Colorimetry (p-nitrophenol), cited from earlier work; for Ki: pH 9.0; for IC50: read-out: IC50 (shown in the Ki column)
human soluble ENPP1 [3] = conditions: substrate ATP, Capillary Electrophoresis, pH 9.0; cited from earlier work
human soluble ENPP1 [4] = conditions: substrate cGAMP, Bioluminescence (Enzyme-coupling), cited from earlier work
human ENPP1 [5] = target: T1, human ENPP1 (Homo sapiens, UniProt P22413); test: Fluorescent screening of ENPP1 inhibitors using ATP as substrate and Kyoto Green as reporter; format: biochemical; parameters: purchased R&D systems (Minneapolis, USA); conditions: 2 μM ATP, 11.5 nM ENPP1, 20 min, pH 7.4; for ENPP1 inhibition in Kyoto Green screening (in words): 10 μM or maximum soluble concentration
T1 sequence (P22413 98-925 limits assumed): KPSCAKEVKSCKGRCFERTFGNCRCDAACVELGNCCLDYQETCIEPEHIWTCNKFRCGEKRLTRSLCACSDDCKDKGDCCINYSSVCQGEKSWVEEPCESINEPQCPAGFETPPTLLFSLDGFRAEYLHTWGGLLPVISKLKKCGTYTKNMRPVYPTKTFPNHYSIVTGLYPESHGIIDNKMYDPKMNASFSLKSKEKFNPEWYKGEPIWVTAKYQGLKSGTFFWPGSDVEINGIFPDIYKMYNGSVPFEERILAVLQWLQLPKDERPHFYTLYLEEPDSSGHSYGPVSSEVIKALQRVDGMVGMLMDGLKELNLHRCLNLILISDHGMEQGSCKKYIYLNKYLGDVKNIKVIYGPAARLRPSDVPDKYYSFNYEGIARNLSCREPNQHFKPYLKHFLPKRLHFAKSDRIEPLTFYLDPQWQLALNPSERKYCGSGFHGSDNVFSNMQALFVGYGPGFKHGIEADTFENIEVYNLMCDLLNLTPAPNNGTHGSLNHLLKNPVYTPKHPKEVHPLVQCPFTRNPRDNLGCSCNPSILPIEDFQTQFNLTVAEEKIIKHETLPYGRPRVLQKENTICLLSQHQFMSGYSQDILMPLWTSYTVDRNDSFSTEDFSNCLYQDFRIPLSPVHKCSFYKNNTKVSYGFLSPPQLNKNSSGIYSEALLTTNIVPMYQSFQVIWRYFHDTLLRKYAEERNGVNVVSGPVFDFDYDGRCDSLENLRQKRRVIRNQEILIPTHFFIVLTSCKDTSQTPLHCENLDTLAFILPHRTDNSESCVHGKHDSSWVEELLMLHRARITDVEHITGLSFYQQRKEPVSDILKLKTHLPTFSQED

[6] = Solubility in water (solution preparation); format: physicochemical
human ENPP1 [7] = target: T1, human ENPP1; test: Colorimetric UV-visible assay of ENPP1 using p-Nph-5′-TMP as chromogenic substrate; format: biochemical; parameters: purchased R&D systems (Minneapolis, USA)
human ENPP1 [8] = target: T1, human ENPP1; test: biochemical
[9] = pH-dependent stability of quercetin in aqueous solution (UV-visible spectrum); format: physicochemical; conditions: 50 mM HEPES buffer (pH 7.4), 60 min, 7 µM
Method: page 8: 0 → 60 min 0 → 60 min Figure S7.pH -dependent stability of quercetin in aqueous solution. Time course of UV- visible spectrum (JASCO […], Japan) of quercetin ( 7 μ M) in50 m M HEPES buffer (pH 7.4) (above) or 50 mM borate buffer (pH 9.0) (below) . Inset: Absorbance at λ ma x ( 403 nm). Ratio of ethanol : buffer = 1 : 10 v/v. The buffer contain ed 10 mM NaCl, 1 mM MgCl 2, and 0.02 mM Zn(NO3)2. Measurements were performed at 25± 2 °C. S8 […]

human ENPP1 [10] = target: T1, human ENPP1; test: Bioluminescent assay of ENPP1 using luciferin/luciferase ATP assay kit
human ENPP1 [11] = target: T1, human ENPP1; test: Fluorescent determination of IC50/Ki using Kyoto Green (ATP hydrolysis)
human ENPP1 [12] = target: T1, human ENPP1; parameters: purchased R&D systems (Minneapolis, USA); method as in PMID 28011303; conditions: substrate of human ENPP1, pH 9.0; cited from earlier work
[13] = Kyoto Green fluorescence method, ATP, pH 7.4

Compound: Cc1nc2ncnn2c(N(C)C)c1Cc1cccc(N)c1 [Compound 1]
Ki (human soluble ENPP1 [1]): 2 µM
Ki (human soluble ENPP1 [2]): 0.48 µM

Compound: COc1ccc(NC(=O)CSc2nc3c(N)ncnc3[nH]2)cc1OC [Compound 3]
Ki (human soluble ENPP1 [3]): 18 µM
Ki (human soluble ENPP1 [2]): 0.005 µM

Compound: COc1cccc2c(NCc3ccc(P(=O)(O)O)cc3)c(C#N)cnc12 [Compound 5]
Ki (human soluble ENPP1 [4]; pH 7.4): < 0.002 µM

Compound: CN1Cc2c(ncnc2N2CCC(C)(CNS(N)(=O)=O)CC2)NC1=O [Compound 6]
IC50 (human soluble ENPP1 [4]; pH 8.5, read-out: IC50 (shown in the Ki column)): 0.0037 µM

ENPP1 inhibition in Kyoto Green screening (in words) (human ENPP1 [5]): ineffective as inhibitors
Compound: O=c1c(O)c(-c2ccc(O)cc2)oc2cc(O)cc(O)c12 [Kaempferol, 3, 4′,5,7 -tetrahydroxyflavone]

ENPP1 inhibition in Kyoto Green screening (in words) (human ENPP1 [5]): ineffective as inhibitors
Compound: O=c1c(O)c(-c2ccc(O)cc2O)oc2cc(O)cc(O)c12 [Morin, 3,5,7,2′,4′-pentahydroxyflavone]

Compound: O=c1c(O)c(-c2cc(O)c(O)c(O)c2)oc2cc(O)cc(O)c12 [Myricetin, 3,5,7,3′,4′,5′-hexahydroxyflavone]
IC50 (human soluble ENPP1 [2]; pH 7.4): 0.432 µM
IC50 (human soluble ENPP1 [2]; pH 9.5): 0.414 µM

reduction of Kyoto Green fluorescence change (F/F0-1) compared to the control group without an inhibitor (human ENPP1 [5]; 10 μM compound): over 90%
solubility in water [6]: poor solubility in water
Ki by colorimetric method relative to Ki by Kyoto Green and commercial ATP assays (human ENPP1 [7]; p-Nph-5′-TMP versus ATP as substrate): approximately 40 fold
Ki (human ENPP1 [7]; substrate p-Nph-5′-TMP, Colorimetry (p-nitrophenol), pH 7.4, Cheng-Prusoff, KM 222 µM): 0.159 ± 0.073 µM
Ki (human ENPP1 [8]): ~0.004 µM
stability in buffer [9]: highly stable
IC50 (human ENPP1 [10]): 0.0055 ± 0.0006 µM
IC50 (human ENPP1 [11]): 0.0045 ± 0.0009 µM
inhibitory efficiency of quercetin relative to myricetin (human ENPP1 [11]; [13]): ~ 8 folds
inhibitory efficiency of quercetin relative to suramin (human ENPP1 [11]; [13]): ~ 188 folds
Compound: O=c1c(O)c(-c2ccc(O)c(O)c2)oc2cc(O)cc(O)c12 [Quercetin, 3,5,7,3′,4′-pentahydroxyflavone]
ENPP1 inhibition at pH 9.0 (in words) (human ENPP1 [7]; 700 nM quercetin, 0.1 mM p-Nph-5′-TMP, 50 mM borate buffer pH 9.0, 6.5 nM ENPP1, time course 60 min): capable of inhibiting ENPP1 at pH 9.0, but this effect was observed only for the first 10 min

ENPP1 inhibition in Kyoto Green screening (in words) (human ENPP1 [5]): did not inhibit ENPP1
ENPP1 inhibition in Kyoto Green screening (in words) (human ENPP1 [5]; listed as quercetin glucoside): ineffective as inhibitors
Compound: O=c1c(O[C@@H]2O[C@H](CO)[C@@H](O)[C@H](O)[C@H]2O)c(-c2ccc(O)c(O)c2)oc2cc(O)cc(O)c12 [Quercetin-3-glucoside, quercetin-3-glucoside]

Compound: Cc1cn([C@H]2C[C@H](O)[C@@H](COP(=O)(O)Oc3ccc([N+](=O)[O-])cc3)O2)c(=O)[nH]c1=O [p-Nph-5′-TMP, p-nitrophenyl 5′-thymidine monophosphate]
Km (human ENPP1 [12]): 222 µM
